Source: patent US11045473B2, “Compositions and methods for therapy of prostate cancer using drug combinations to target polyamine biosynthesis and related pathways” (Health Research, Inc., priority 2015, dated 2021)
Entries after “also recorded” stand apart in the source; their conditions may differ.

What was measured:
[1] = tested on: PC3; assay: Proliferation / IC50 by trypan blue cell counts, PC3; type: cell-based, human; details: for IC50: Homo sapiens; for effect on cell growth: 8 and 12 days
Method: (§1) A transition state analog inhibitor of MTAP, Methylthio-DaDMe-Immucillin-A (MTDIA) was previously described and shown to be effective following a 6 or 12 day treatment at ˜10 and 100 nM MTDIA when 20 uM MTA was added to the media in both lung adenocarcinoma cell lines and head and neck squamous carcinoma cell lines, respectively [Basu I, et al. J Biol Chem. 2007; 282:21477-21486; Basu I, et al. J Biol Chem. 2011; 286:4902-491]. 32]. We synthesized MTDIA and the analytical data on the synthesized compound are shown in FIGS. 8A and 8B with the scheme used for synthesis shown in FIG. 6. […] In all three cell lines, the proliferation curves after 12 days of treatment show an IC50 of MTDIA>1 mM in the absence of MTA (FIG. 5B), but in the 10-100 nM range with the addition of 10 or 20 μM MTA. […] Nanomolar range IC50 values are highlighted.
(§2) IC50—The MTAP inhibitor (3R,4S)-1-[(9-Deaza-adenin-9-yl)methyl]-3-hydroxy-4-(methylthiomethyl)-pyrrolidine, or MT-DADMe-Immucillin-A (MTDIA) was synthesized following the synthesis scheme shown in FIG. 6 and based on a known approach. Cells were seeded at 125,000 cells/well (PC-3, DU145, LNCaP) in triplicate in 2 mLs of RPMI medium supplemented with 10% fetal bovine serum, and 1% penicillin streptomycin. After 24 hours the MTDIA and/or MTA was added at the indicated concentrations. Both medium and drug were refreshed every 48 hours. Every 96 hours the cells were trypsinized, ˜2% of cells were removed and counted by trypan blue exclusion and the rest were replated into a larger vessel.

[2] = tested on: LNCaP; assay: Proliferation / IC50 by trypan blue cell counts, LNCaP; type: cell-based, human; details: for effect on cell growth: 8 and 12 days; for IC50: Homo sapiens
Method: as §1, §2

[3] = tested on: head and neck squamous carcinoma cell lines; details: 12 day treatment, 20 uM MTA added to the media; cited from earlier work
[4] = tested on: LNCaP xenograft; assay: LNCaP xenograft growth in nude mice, MTDIA in the drinking water; type: in vivo
Method: Human cell line xenografts with pharmacological treatment—1×10^6 wild type LNCaP cells were subcutaneously injected onto the flank of pelleted nude mice. At time of injection animals were randomly assigned to one of the following three groups; control, 9 or 21 mg/kg MTDIA in the drinking water with 20 mice in each group. Tumor measurements were assessed and recorded twice a week. Animals were sacrificed once tumors reached 2 cm3 or at the end point of the experiment (91 days).

[5] = tested on: FaDu cells; assay: IC50 of MTDIA for FaDu cells; type: cell-based; details: Homo sapiens, 144 h, 6 day treatment, 20 uM MTA
[6] = tested on: MTAP; assay: Western blot of MTAP protein expression in DU145; type: cell-based, human; details: DU145, 4 day IC25 and IC50 of MTDIA, presence or absence of MTA
Method: FIG. 9. (A) Proliferation curves for LNCaP, DU145 and PC3 treated with MTDIA in the absence or presence of 10 or 20 uM MTA, for 4 and (B) 8 days. […] (C) Western blot analysis of FaDu, LNCaP, and DU145 cells after indicated treatments of MTA (0, 10, or 20 uM) or the respective 4 day IC25 and IC50 dose of MTDIA for each cell line plus or minus MTA immunoblotted with antibodies against MTAP, SMS, and SRM, with B-actin as a loading control. Western blot images are representative of biological triplicates.
Western Blotting—Whole cell extracts were prepared in RIPA buffer (150 mM NaCl, 1.0% NP-40, 0.5% deoxycholate, 0.1% SDS, 50 mM Tris-HCl pH 8.0, 5 mM EDTA and 0.5 mM PMSF) supplemented with 1× proteinase inhibitor. Protein concentrations were determined by Bradford Assay (Thermo Scientific, Cat #1856209). […] MTAP for Westerns was purchased from Proteintech™ (Cat #11475-1-AP. SRM and SMS were purchased from Abcam® (Cat #ab111884 and ab156879). B-actin antibody for Westerns was purchased from Sigma-Aldrich (Cat #A5441) and GAPDH was from Santa Cruz Biotecnology Inc. (Cat #sc-25778). Films were scanned using the Biorad ChemiDoc XRS, and band intensities were calculated using Image Lab™. Intensity values were normalized to B-actin loading control band intensities and made relative to control treatment conditions.

[7] = tested on: DU145; assay: Proliferation / IC50 by trypan blue cell counts, DU145; type: cell-based, human; details: for effect on cell growth: 8 and 12 days; for IC50: Homo sapiens
Method: as §1, §2

CSC[C@H]1CN(Cc2c[nH]c3c(N)ncnc23)C[C@@H]1O [MTDIA, (3R,4S)-1-[(9-Deaza-adenin-9-yl)methyl]-3-hydroxy-4-(methylthiomethyl)-pyrrolidine]
IC50 ([1]; PC-3, 96 h, PC3, 4 days, 0 μM MTA): > 1000 µM
IC50 ([1]; PC-3, 96 h, PC3, 4 days, 10 μM MTA): > 1000 µM
IC50 ([1]; PC-3, 96 h, PC3, 4 days, 20 μM MTA): 300 µM
IC50 ([1]; PC-3, 192 h, PC3, 8 days, 0 μM MTA): > 1000 µM
IC50 ([1]; PC-3, 192 h, PC3, 8 days, 10 μM MTA): 100 µM
IC50 ([1]; PC-3, 192 h, PC3, 8 days, 20 μM MTA): 0.09 µM
IC50 ([1]; PC-3, 288 h, PC3, 12 days, 0 μM MTA): > 1000 µM
IC50 ([1]; PC-3, 288 h, PC3, 12 days, 10 μM MTA): 80 µM
IC50 ([1]; PC-3, 288 h, PC3, 12 days, 20 μM MTA): 0.082 µM
IC50 ([1]; PC-3, 288 h, PC3, 12 days, with 10 or 20 μM MTA): 0.01 to 0.1 µM
effect on cell growth ([1]; PC3, 100 nM MTDIA, with 20 μM MTA): dramatic effect on cell growth
effect on cell growth ([1]; PC3, 100 nM MTDIA, without MTA): little to no effect
effect on growth ([1]; PC3, 100 nM MTDIA, 4 days, with or without 20 μM MTA): limited effects on growth
blocking cell growth ([1]; PC3, 6 days, low concentrations of MTDIA): no effect at blocking cell growth
effect on cell growth ([2]; 100 nM MTDIA, with 20 μM MTA): dramatic effect on cell growth
effect on cell growth ([2]; 100 nM MTDIA, without MTA): little to no effect
effect on growth ([2]; 100 nM MTDIA, 4 days, with or without 20 μM MTA): limited effects on growth
blocking cell growth ([2]; 6 days, low concentrations of MTDIA): no effect at blocking cell growth
IC50 ([2]; 96 h, 4 days, 0 μM MTA): > 1000 µM
IC50 ([2]; 96 h, 4 days, 10 μM MTA): > 1000 µM
IC50 ([2]; 96 h, 4 days, 20 μM MTA): 200 µM
IC50 ([2]; 192 h, 8 days, 0 μM MTA): > 1000 µM
IC50 ([2]; 192 h, 8 days, 10 μM MTA): 1 µM
IC50 ([2]; 192 h, 8 days, 20 μM MTA): 0.085 µM
IC50 ([2]; 288 h, 12 days, 0 μM MTA): > 1000 µM
IC50 ([2]; 288 h, 12 days, 10 μM MTA): 0.011 µM
IC50 ([2]; 288 h, 12 days, 20 μM MTA): 0.014 µM
IC50 ([2]; 288 h, 12 days, with 10 or 20 μM MTA): 0.01 to 0.1 µM
effective concentration [3]: ~100 nM
xenograft growth ([4]; 21 mg/kg MTDIA daily in the drinking water, vs untreated control and 9 mg/kg dose): significant (p<0.001) block in xenograft growth; also recorded: dramatically blocked LNCaP xenograft growth
xenograft growth after drug removal ([4]; 21 mg/kg group, drug removed at day 61, carried out to day 91): significant block in xenograft growth was maintained
IC50 [5]: ~0.05 µM
MTAP expression [6]: upregulate expression of MTAP
effect on cell growth ([7]; DU145, 100 nM MTDIA, with 20 μM MTA): dramatic effect on cell growth
effect on cell growth ([7]; DU145, 100 nM MTDIA, without MTA): little to no effect
effect on growth ([7]; DU145, 100 nM MTDIA, 4 days, with or without 20 μM MTA): limited effects on growth
blocking cell growth ([7]; DU145, 6 days, low concentrations of MTDIA): no effect at blocking cell growth
IC50 ([7]; DU-145, 96 h, DU145, 4 days, 0 μM MTA): > 1000 µM
IC50 ([7]; DU-145, 96 h, DU145, 4 days, 10 μM MTA): > 1000 µM
IC50 ([7]; DU-145, 96 h, DU145, 4 days, 20 μM MTA): > 1000 µM
IC50 ([7]; DU-145, 192 h, DU145, 8 days, 0 μM MTA): > 1000 µM
IC50 ([7]; DU-145, 192 h, DU145, 8 days, 10 μM MTA): 0.022 µM
IC50 ([7]; DU-145, 192 h, DU145, 8 days, 20 μM MTA): 590 µM
IC50 ([7]; DU-145, 288 h, DU145, 12 days, 0 μM MTA): > 1000 µM
IC50 ([7]; DU-145, 288 h, DU145, 12 days, 10 μM MTA): 0.014 µM
IC50 ([7]; DU-145, 288 h, DU145, 12 days, 20 μM MTA): 0.01 µM
IC50 ([7]; DU-145, 288 h, DU145, 12 days, with 10 or 20 μM MTA): 0.01 to 0.1 µM
